Assay results reported in US9018208B2, “Heterocycles as potassium channel modulators” (Icagen Inc., priority 2007, dated 2015).
Like-named read-outs stand apart in the source and are kept apart here.

Assays:
[1] = tested on: SH-SY5Y M-currents (KCNQ2, KCNQ3 and KCNQ5); assay: SH-SY5Y native cell line FLIPR assay (voltage-sensitive dye DiBAC); format: cell-based, mouse neuroblastoma, rat glioma hybrid cell line; conditions: FLIPR assay, SH-SY5Y native cell line, read-out: SH-SY5Y EC50
Method in brief: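 Response is peak DiBAC fluorescence change, normalised to the maximum from a positive control agent, sampled every 30 s over 25 min. Before compound addition, SH-SY5Y cells differentiated with PGE1 plus isomethylbutylxanthine were dye-loaded for 1 h in EBSS with […] DiBAC.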

[2] = tested on: tactile allodynia following L5 nerve ligation, Male Sprague-Dawley rats; assay: In vivo rat assay for neuropathic pain (L5 spinal nerve ligation, Von Frey tactile allodynia); conditions: oral, Von Frey 50% paw withdrawal threshold after L5 ligation
Text: A neuropathic pain condition is induced in rats using a nerve injury model similar to the method described by Kim and Chung (Kim, S. H. & Chung, J. M. (1992) Pain 50:355-363). Rats (Male Sprague-Dawley, Charles River, Wilmington, Mass.) weighing 200-300 grams were utilized. Food and water was available ad libitum except during testing) are anesthetized with halothane and the L5 spinal nerve is exposed, carefully isolated, and tightly ligated with 4.0 silk suture distal to the dorsal root ganglia. The wounds are sutured and the animals are allowed to recover in individual cages. To test the effect of a KCNQ opener on tactile allodynia following L5 nerve ligation, Von Frey tactile withdrawal thresholds are determined. Test animals are placed in a box separated by walls with a wire mesh floor allowing access to the plantar surface of the paw. […] Failure to lift the hind paw after 4 seconds is scored as a negative response and the next ascending hair is applied. […]
Baseline measurements of allodynia are performed immediately prior to subject selection and compound administration. […] Additional paw withdrawal thresholds are measured at various time intervals after compound administration. Examples 153 and 19 were evaluated in this assay.

[3] = tested on: electroshock seizure, Male Wistar rats; assay: In vivo rat assay for anti-convulsant activity (rat MES, electroshock seizure); conditions: for Rat MES activity: single dose screening, oral, typically 10 mg/kg, animals protected from hind limb extension
Procedure: Male Wistar rats were housed 4 per cage on a regular light/dark cycle (lights on 0600-1800) for one week prior to anti-convulsant testing. The apparatus used to induce electroshock seizure was obtained from Walhquist Instrument Co., Salt Lake City, Utah. The shock level was set at 150 mA and the duration at 0.2 seconds. A drop of 1% proparacaine solution was placed in each eye of a rat, the electrodes were placed over the eyes, and the shock was administered. Latency to hind limb extension was measured to the nearest 0.1 second.
The KCNQ opener was homogenized in either 0.5% carboxymethylcellulose in water or 0.5% methylcellulose in water) and administered orally through a steel 18-gauge rat gavage tube in a volume of 2 mL/kg of body weight. In the single dose screening assay, latency to seizure for the vehicle group and the KCNQ opener group were compared using t-test. Typically a dose of 10 mg/kg of the opener is used. However, openers can be run n a dose-response experiment where doses of 1, 3, 10 and 30 mg/Kg are used.
In the single dose screening assay, latency to seizure for the vehicle and the 10 mg/kg groups were compared using t-test. Latencies to seizure in the dose response studies were submitted to analysis of variance and all dose groups were compared to vehicle using Dunnett's method (JMP© ver 5.1, SAS). In all cases an effect was considered significant if p≦0.05.

[4] = tested on: carrageenan-induced thermal hyperalgesia, Sprague Dawley rats; assay: In vivo rat model for inflammatory pain (carrageenan, thermal hyperalgesia); conditions: oral, carrageenan paw, thermal escape latency
Procedure: Compounds with anti-hyperalgesic activity will increase (or lengthen) the escape latency of the inflamed paw.
To induce a local inflammation, 50 μL of a 1% solution of λ-carrageenan in sterile water is injected subcutaneously into the plantar surface of the right hind paw of the rat (Sprague Dawley rats, sample size=8 per treatment group). The KCNQ openers typically at doses ranging from 1-100 mg/kg were homogenized in either 0.5% carboxymethylcellulose in water or 0.5% methylcellulose in water and administered orally through a steel 18-gauge rat gavage tube in a volume of 2 mL/kg of body weight 30 minutes prior to carrageenan injection. After carrageenan injection behavioral testing is conducted at the appropriate time following opener or vehicle administration (generally Tmax, the time of maximum plasma levels of the compound being tested). To assess the thermally evoked paw withdrawal response, a commercially available Hargreaves Box was used (UCSD Department of Anesthesiology, San Diego; La Jolla, Calif., stimulus intensity 5.25 amps). Rats were placed on a thin glass surface in individual chambers made of clear plastic. […] The time to withdrawal response is measured in seconds and assigned as the response latency. […]

| SMILES | EC50 ([1]; Table 1) | ED50 [2] | Rat MES activity [3] | EC50 ([1]; Table 2) | ED50 ([3]; Rattus norvegicus, po, rat MES dose-response) | ED50 [4] |
| --- | --- | --- | --- | --- | --- | --- |
| CC(C)(C)CC(=O)Nc1nc2ccc(C(F)(F)F)cn2c1CC(C)(C)C [Compound 19, 3,3-dimethyl-N-(3-neopentyl-6-(trifluoromethyl)imidazo[1,2-a]pyridin-2-yl)butanamide] | < 0.5 µM | 10 mg/kg | +++ (+++ 7-8 animals protected) | – | – | – |
| CC(C)(C)CC(=O)Nc1nc2ccc(F)cn2c1-c1ccc(OC(F)(F)F)cc1 [Compound 153, N-(6-fluoro-3(4-(trifluoromethoxy)phenyl)imidazo[1,2-a]pyridin-2-yl)-3,3-dimethylbutanamide] | – | 1.9 mg/kg | +++ (+++ 7-8 animals protected) | < 0.5 µM | 0.5 mg/kg | 0.5 to 1 mg/kg |
